# Ends that are not written are not given here.
# Legend:
# MDA-MB-435 cells [1] = assay: In vitro transfection with polymer:liposome:PCI-Luc complexes, luciferase activity; format: cell-based, human; settings: for increase of transfection efficiency of branched polymer compared to the linear H-K polymer: with liposomes and 0.75 μg DNA, optimal dose; for transfection efficiency compared to H-K (19-mer): polymer:liposome:PCI-Luc; for transfection efficiency / uptake of liposomes (sequence order comparison): polymer mixed with DNA then liposomes, cell line not stated; for transfection efficiency of the liposome: PCI-Luc complex, polymer vs no polymer (length comparison): 7.5 nmole polymer
# Method: (§1) 4.5×10^4 cells (MDA-MB-435, NIH3T3 or CHO) were initially plated into 24 well dishes. After 48 hours, when the cells were 60 and 80% confluent, cells were transfected with a plasmid encoding luciferase (PCI-Luc). In transfection experiments, the copolymer was initially incubated with PCI-Luc for 30 minutes in OptiM. The amount of copolymer which varied from 0.25 nmole to 15 nmole was mixed with the plasmid or oligonucleotide. The concentration of DNA varied from 0.25 μg to 0.75 μg. No visible aggregation of the polymer with the plasmid DNA was apparent at these concentrations. Cationic liposomes were then added, gently mixed, and then allowed to stand for an additional 30 minutes. The polymer:liposome:DNA complex was then diluted with either OptiM or OptiM+10% serum. In experiments utilizing lysomotropic agents, either chloroquine (Sigma, St. Louis, Mo.) or bafilomycin Al (Sigma) was added to the media at concentrations of 10 ng/ml and 25 μM, respectively. Four hours after transfection, the complexes were removed and DMEM with 10% serum was added. Forty-eight hours later, luciferase levels were measured with the Turner 20/20 luminometer. Duplicates were done for each concentration and each experiment was performed twice.
# [2] = Effect of adding transition metal on transfection efficiency of polymer:liposome:DNA complexes; format: cell-based; settings: Zn2+ 0 to 2.00 μg/ml added to H-K2b, H-K3b or H-K4b:liposome:DNA
# Method: To determine the effect of adding transition metals on the transfection efficiency of a polymer:DNA complex, 0.25 μg H-K2b, 0.125 μg H-K3b, or 0.125 μg H-K4b were initially mixed with 0.75 μg DNA. After 30 minutes, cationic liposomes were added for 30 minutes. Zn^2+ was then added in an amount ranging from 0 to 2.00 μg/ml. As a control, various amounts of zinc were added to the liposome:DNA complex.
# CHO cells = assay: In vitro transfection with polymer:liposome:PCI-Luc complexes, luciferase activity; format: cell-based, Chinese hamster
# Method: as §1
# NIH-3T3 cells = assay: as above; format: cell-based
# Method: as §1
# endothelial cells (BAEC) = assay: In vitro transfection with polymer:liposome:DNA complexes, luciferase activity; format: cell-based, bovine
# Method: To further investigate the extent to which histidine order could affect transfection efficiency, four polymer solutions containing a different linear histidine copolymer (H-K (19-mer) (SEQ ID NO:3), HHH-K (20-mer) (SEQ ID NO:6), HH-K (20-mer) (SEQ ID NO:5), or K-HK (21-mer) (SEQ ID NO:9)) were mixed in amounts ranging from 0.125 μl to 2.5 μl with 0.75 μg DNA. The concentration of each of the polymer solutions was […]. After 30 minutes, 1.5 μg of liposomes were added. After adding the delivery compositions to endothelial cells (BAEC) for 4 hours, the cells were washed, and luciferase activity measured 48 hours later (FIG. 14).
# MDA-MB-435 cells [3] = assay: In vitro transfection with polymer:DNA complex in the absence of liposomes, luciferase activity; format: cell-based, human; settings: no liposomes
# Method: as §1
# Effect on transfection efficiency of a polymer:DNA complex: To determine the effect of branching on the transfection efficiency of a polymer:DNA complex, 7.5 nmol of H-K or 0.375 nmol of HH-K4b was mixed with PCI-Luc, and luciferase activity was measured as described above.
# HH-K4b and HHH-K4b, respectively, have a histidine to lysine ratio of 1.5 and 2.4, respectively. […] In vitro transfection experiments were performed on MDA-MB-435 cells as described previously in 6.2 and 6.4.3. For the formation of the complex, 3.75 μg of polymer was mixed with 0.75 μg of PCI-Luc, and experiments were performed in a 24-well plates.
# MDA-MB-435 cells [4] = assay: Uptake of polymer:fluorescein-labeled oligonucleotide complex, CytoFluor fluorescence; format: cell-based, human; settings: no liposomes; 0.75 μg 32-mer; 4 hour incubation, measured 24 hours later
# Method: Effect on uptake of a polymer:oligonucleotide complex: In a second experiment, the same amount of HK or HHK4b was mixed with 0.75 μg of a 5′-end fluorescein-labeled randomly generated oligonucleotide(32-mer) for 30 minutes. This complex was added to the MDA-MB-435 cells for 4 hour incubation. Twenty-four hours later, the cells were then washed, and measured by CytoFluor fluorescence Measurement System. (Millipore, Bedford, Miss.).
# [5] = test system: MDA-MB-435 tumors in nude mice; assay: In vivo tumor growth after intratumoral injection of HH-K4b:oligonucleotide complexes (DNAzyme against VEGF receptor mRNA); settings: SEM in parentheses
# Method: In vivo delivery of pharmaceutical agents. […] In this example, the receptor of VEGF mRNA with a DNA oligonucleotide that has enzymatic activity (also called DNAzyme) (36) was targeted. The VEGF receptor is essential for tumor angiogenesis and consequently tumor growth. After breast cancer cells (MDA-MB-435 cells) were injected into nude mice and the tumors grew to a visible size, the tumor was injected with the therapeutic polymer-DNA complex. The tumor was injected every 5 days for a total of 5 injections. There were 4 treatment groups: 1) untreated, 2) HH-K4B carrier alone, 3) HH-K4b+DNAzyme, and 4) HH-K4b+antisense oligonucleotides. To prepare the complex for injection, 45 μg of the HH-K4b polymer diluted in 150 μl of water was mixed with 24 μg of oligonucleotide, also diluted in 150 μl of water. After formation of the complex for 2 hours, 25 μl of the treatment complex was injected into each tumor. The therapeutic oligonucleotide sequence is 5′-TGCTCTCCA-GGCTAGCTACAACGA-CCTGCACCT-3′ (SEQ ID NO:18) whereas the control antisense oligonucleotide sequence is 5′-TGCTCTCCA-GGCTATGTACAACGA-CCTGCACCT-3′. (SEQ ID NO:19) The only difference between the therapeutic DNAzyme sequence and the antisense sequences is that the nucleotides responsible for cleaving the mRNA have been altered with the antisense DNA.
# [6] = test system: mice with 66.1 cell lung metastases; assay: Intravenous delivery of polymer:liposome:PCI-Luc, lung luciferase activity; format: in vivo; settings: complex with DOTAP/cholesterol liposomes, tumor laden mice, lungs six hours later
# Method: FIG. 19. Branched transport polymer in combination with liposomes enhanced transfection efficiency when administered intravenously. Two weeks prior to injection of complex, 1.0×10^5 of 66.1 cells (a murine breast cancer cell line) were injected into mice to establish lung metastases. 6 μg of HH-K4b (volume-60 μl) was mixed with 30 μg of PCI-Luc (volume-60 μl). After 40 min, 18 μg of liposomes (DOTAP:cholesterol, volume-60 μl) was added and gently mixed for another 30 min. Total volume of the polymer: liposome: DNA solution is 180 μl. 0.28 μl of 1 M Hepes was mixed with H-K or HH-K4b solution, respectively, to neutralize to approximately pH-7.0. Liposome in complex with PCI-Luc complexes were prepared similarly. 150 μl of the complex solution was injected via the tail vein into the mice. Six hours later, the lungs were homogenized and the luciferase activity was measured in each group.
# The liposomes were composed of DOTAP and cholesterol in a 1 to 1 molar ratio.
# tumor = assay: Intratumoral injection of branched polymer carrier of PCI-Luc, gene expression; format: in vivo; settings: injected intratumorally
# Text: FIG. 20. Comparison of the in vitro and in vivo transfection efficiencies of branched transport polymers having different lysine content. In contrast to in vitro experiments, local injection of a branched polymer with a lower lysine content enhanced transfection. A) In vitro comparison of HH-K4b and HHH-K4b as gene delivery carriers of PCI-Luc.
# In place of lysine or other cationic amino acids (e.g., ornithine and arginine), other amino acids may be substituted. The preferred amino acids to be substituted for lysines are hydrophilic amino acids such as asparagine or serine.
compound,measurement,setting,value
[K-H-K-H-K-H-K-H-K-G-K-H-K-H-K-H-K-H-K]3 K2 [H-K3b],increase of transfection efficiency of branched polymer compared to the linear H-K polymer,MDA-MB-435 cells [1]; absence of serum,approximately 10 fold
"KHKHKHKHKGKHKHKHKHK-NH2 [H-K (19-mer), [K-H-K-H-K-H-K-H-K-G-K-H-K-H-K-H-K-H-K]]",morphologic evidence of cellular toxicity due to the polymer,MDA-MB-435 cells [1]; even at concentrations of 0.5 mM,No morphologic evidence of cellular toxicity
[Zn+2] [zinc],effect of added zinc on transfection efficiency of polymer:liposome:DNA complexes,[2],can enhance transfection efficiency
CCN(CC)CCCC(C)Nc1ccnc2cc(Cl)ccc12 (stereo not shown) [chloroquine],effect of lysosomotropic agent on transfection of the H-K: liposome: PCI-Luc triplex,CHO cells; CHO cells,significantly increased
same,effect of lysosomotropic agent on transfection of the H-K: liposome: PCI-Luc triplex,NIH-3T3 cells,significantly increased
[KKHHHKHHHKKHHHKHHHKK] (KKHHHKHHHKKHHHKHHHKK) [HHH-K],"transfection of DNA in combination with liposomes, rank among four polymers",endothelial cells (BAEC); highest concentration of polymer used,most effective of the four
same,"transfection of DNA in combination with liposomes, rank among four polymers",endothelial cells (BAEC); lower concentrations of polymer,not as effective as the other three polymers tested
"H-R (19-mer): arginine-histidine copolymer, SEQ ID NO: 13 (RHRHRHRHRGRHRHRHRHR)",transfection efficiency compared to H-K (19-mer),MDA-MB-435 cells [1],significantly better than H-K
"[K-K-K-K-K-K-K-K-K-G-K-K-K-K-K-K-K-K-K] (KKKKKKKKKGKKKKKKKKK) [poly-L-lysine, reference compound]",effect of serum on transfection efficiency of polymer:liposome carrier,MDA-MB-435 cells [1]; presence vs absence of 10% serum,markedly decreased in the presence of serum
[YGRKKRRQRRRGKHKHKHKHKHKHKHKHK] (YGRKKRRQRRRGKHKHKHKHKHKHKHKHK) [Y-HK],transfection efficiency / uptake of liposomes (sequence order comparison),MDA-MB-435 cells [1]; presence or absence of serum,accelerated useful transfection efficiency
[KHKHHKHHKHHKHHKHHKHK]4K3 [HH-K4b],in vitro transfection compared to HHH-K4b,"MDA-MB-435 cells [3]; 3.75 μg polymer, 0.75 μg PCI-Luc",significantly more effective transfection agent in vitro
same,transfection efficiency of polymer:DNA complex compared to linear H-K polymer,MDA-MB-435 cells [3]; 0.375 nmol HH-K4b vs 7.5 nmol H-K,better
same,"luciferase expression as sole carrier of DNA compared to HH-K3b, HH-K2b and H-K4b",MDA-MB-435 cells [3]; data not shown,better at enhancing luciferase expression
same,uptake of oligonucleotides compared to linear HK polymer: oligonucleotides complex,MDA-MB-435 cells [4],significantly enhanced uptake
same,"tumor volume, 1st Injection",[5]; measured before 1st injection (baseline),9.5 (1.1)
same,"tumor volume, 2nd Injection","[5]; measured before 2nd injection, intratumoral every 5 days",63.7 (10.7)
same,"tumor volume, 3rd Injection","[5]; measured before 3rd injection, intratumoral every 5 days",134 (30)
same,"tumor volume, 4th Injection","[5]; measured before 4th injection, intratumoral every 5 days",236 (55)
same,"tumor volume, 5th Injection","[5]; measured before 5th injection, intratumoral every 5 days",429 (94)
same,gene (luciferase) expression compared to liposomes only,[6],7 fold
[K-H-K-H-K-H-K-H-K-G-K-H-K-H-K-H-K-H-K]4 K3 [H-K4b],increase of transfection efficiency of branched polymer compared to the linear H-K polymer,MDA-MB-435 cells [1]; absence of serum,approximately 10 fold
"[K-H-H-H-K-H-H-H-K-H-H-H-K-H-H-H-K]4K3 (KHHHKHHHKHHHKHHHK; also: four copies on branched lysine core (K3)) [HHH-K4b, branched polymer on lysine core]",efficiency as carrier of nucleic acids compared to DOTAP liposomes or HH-K4b carrier,tumor,much more efficient as a carrier of nucleic acids
[K-S-K-S-K-S-K-S-K-G-K-S-K-S-K-S-K-S-K] (KSKSKSKSKGKSKSKSKSK) [S-K (19-mer)],transfection efficiency compared to no polymer,"MDA-MB-435 cells [1]; absence of serum, with liposome: PCI-Luc",enhanced the transfection efficiency slightly more than when no polymer was added
same,transfection efficiency compared to H-K (19-mer),MDA-MB-435 cells [1],significantly less effective
[YGRKKRRQRRRHHKHHKHHKHHKHHK] (YGRKKRRQRRRHHKHHKHHKHHKHHK) [Y-HH],transfection efficiency / uptake of liposomes (sequence order comparison),MDA-MB-435 cells [1]; presence or absence of serum,significantly enhanced the uptake of liposomes
[K-H-K-H-K-H-K-G-K-H-K-H-K] (KHKHKHKGKHKHK) [H-K (13 mer)],"transfection efficiency of the liposome: PCI-Luc complex, polymer vs no polymer (length comparison)",MDA-MB-435 cells [1],increased the transfection efficiency
CO/C1=C\C(C)=C\[C@@H](C)[C@@H](O)[C@@H](C)C/C(C)=C/C=C/[C@H](OC)[C@@H]([C@@H](C)[C@@H](O)[C@H](C)[C@@]2(O)C[C@@H](O)[C@H](C)[C@@H](C(C)C)O2)OC1=O [bafilomycin A1],effect of lysosomotropic agent on transfection of the H-K: liposome: PCI-Luc triplex,CHO cells; CHO cells,significantly increased
same,increase of transfection efficiency of the H-K: liposome: PCI-Luc triplex by lysosomotropic agent,"CHO cells; CHO cells, 10 ng/ml bafilomycin added with transfection agents",5 fold
same,effect of lysosomotropic agent on transfection efficiency of the liposome: PCI-Luc complex,CHO cells; absence of the histidine copolymer,did not enhance the transfection efficiency
same,effect of lysosomotropic agent on transfection of the H-K: liposome: PCI-Luc triplex,NIH-3T3 cells,significantly increased
[KHKHKHKHKGKHKHKHKHKGKHKHKHKHK] (KHKHKHKHKGKHKHKHKHKGKHKHKHKHK) [H-K (29 mer)],"transfection efficiency of the liposome: PCI-Luc complex, polymer vs no polymer (length comparison)",MDA-MB-435 cells [1],increased the transfection efficiency
same,transfection efficiency compared to the 13 mer,MDA-MB-435 cells [1]; 7.5 nmole polymer with liposome and DNA,increased transfection efficiency more than the 13 mer
[K-H-K-H-K-H-K-H-K-G-K-H-K-H-K-H-K-H-K]2 K [H-K2b],increase of transfection efficiency of branched polymer compared to the linear H-K polymer,MDA-MB-435 cells [1]; absence of serum,approximately 10 fold
same,transport of DNA into cells (luciferase) relative to PEI,"MDA-MB-435 cells [1]; presence or absence of serum, H-K2b 0.25 μg + DNA 0.75 μg + liposomes 1.5 μg vs PEI 0.5 μg",more than 10 fold

# Reference: patent US7070807B2, “Branched histidine copolymers and methods for using same” (priority 1999, dated 2006)
